From article PMC7714403 (JCI Insight, 2020) come the findings set out here.

For one test, the target named is GSK3A (Homo sapiens, UniProt P49840). Put plainly: KiNativ, OCI cells live cell. Particulars: 2 h, labeling site Lys2, peptide […]. It is filed as cell-based.
A further test relates to AurA, AurB, AurC. Kind of test: KiNativ, OCI cells live cell. It is filed as cell-based, human. The note with it: labeling site ATP Loop, peptide GKFGNVYLAR
A further test addresses FAM20B (Homo sapiens, UniProt O75063). Kind of test: KiNativ, OCI cells live cell. The note with it: 2 h, labeling site ATP, peptide […]. Format: cell-based.
The next test has as its target MAPKAPK3 (Homo sapiens, UniProt Q16644). Put plainly: KiNativ, OCI cells live cell. Particulars: 2 h, labeling site ATP Loop, peptide […]. Format: cell-based.
Test [1] deals with MV4-11, MOLM13, and MOLM13-RES cells. Kind of test: CD11b expression assay. Format: cell-based, human. The note with it: 20 nM, 72 hours. The protocol: (§1) Apoptosis and CD11b expression assays
(§2) At indicated time points, cells were collected and washed with PBS. CD11b expression was measured using anti-CD11b -APC antibody (BioLegend, San Diego, CA). Each sample was suspended in 100uL of FACS buffer (PBS + 4% FBS) with 1uL of antibody, incubated on ice for 15 minutes in the dark and washed once in PBS. DAPI (final concentration 1ug/mL [ThermoFisher Scientific]) was added to each sample as a viability dye. For apoptosis assay, cells were incubated with annexin V-APC (BioLegend) according to manufacturer’s instructions. CD11b expression and apoptosis were measured by BD LSR II flow cytometer. Two-color cytometry was performed, and data were […]
(§3) points, cells were collected and washed with 0.1% EDTA PBS (Ricca Chemical Company, Arlington, TX) followed by only PBS. Cells were then fixed on ice with ice-cold 70% ethanol for 30 minutes . Cells were either stored at -20°C for up to 1 month or processed immediately. Cells were spun down at 450 x g for 10 minutes and stained

For the next test, the system named is OCI-AML3 cells. Kind of test: CD11b expression assay. Particulars: 20 nM and 50 nM, 72 hours. It is filed as cell-based, human. How it is done: as §1, §2, §3
Another test has as its target LCK (Homo sapiens, UniProt P06239). Put plainly: KiNativ, OCI cells live cell. Particulars: 2 h, labeling site Activation Loop, peptide […]. It is filed as cell-based.
For a further test, the target named is T1, MAP2K3 (Homo sapiens, UniProt P46734).
T1 sequence (P46734 1-347): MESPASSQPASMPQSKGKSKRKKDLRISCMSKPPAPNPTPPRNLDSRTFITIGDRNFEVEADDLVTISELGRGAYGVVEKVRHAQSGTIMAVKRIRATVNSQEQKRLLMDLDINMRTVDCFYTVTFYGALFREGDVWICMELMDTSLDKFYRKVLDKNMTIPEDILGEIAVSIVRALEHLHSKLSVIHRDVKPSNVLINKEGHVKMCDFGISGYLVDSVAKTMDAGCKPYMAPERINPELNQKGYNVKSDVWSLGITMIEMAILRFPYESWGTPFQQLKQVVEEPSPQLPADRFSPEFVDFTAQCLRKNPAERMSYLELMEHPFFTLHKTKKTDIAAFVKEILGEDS
Kind of test: KiNativ, OCI cells live cell. It is filed as cell-based. The note with it: 2 h.

For the next test, the target named is FLT3 ITD (Homo sapiens, UniProt P36888, ITD). Kind of test: KdELECT binding assay.
The next test concerns p38d, p38g. Kind of test: KiNativ, OCI cells live cell. It is filed as cell-based, human. The note with it: labeling site Lys2, peptide DLKPGNLAVNEDCELK
The next test deals with CDK10 (Homo sapiens, UniProt Q15131). Put plainly: KiNativ, OCI cells live cell. Format: cell-based. The note with it: 2 h, labeling site Lys2, peptide […].
The test system of another test is KSR1, KSR2. Put plainly: KiNativ, OCI cells live cell. Format: cell-based, human. The note with it: labeling site Activation Loop, peptide SKNVFYDNGK
A further test has as its target RIPK3 (Homo sapiens, UniProt Q9Y572). Put plainly: KiNativ, OCI cells live cell. Format: cell-based. Particulars: 2 h, labeling site Lys2, peptide […].
In another test the target is PCTAIRE1 (Homo sapiens, UniProt Q00536). Kind of test: KiNativ, OCI cells live cell. The note with it: 2 h, labeling site Lys1, peptide […]. It is filed as cell-based.
Another test addresses CaMKK2 (Homo sapiens, UniProt Q96RR4). Kind of test: KiNativ, OCI cells live cell. Format: cell-based. Particulars: 2 h, labeling site Lys2, peptide […].
A further test has as its target PFTAIRE1 (Homo sapiens, UniProt O94921). Put plainly: KiNativ, OCI cells live cell. It is filed as cell-based.
For a further test, the target named is T2, MSK2 domain1 (Homo sapiens, UniProt O75676).
T2 construct: MSK2 domain1
Put plainly: KiNativ, OCI cells live cell. The note with it: 2 h. Format: cell-based.

The next test deals with T3, MLKL (Homo sapiens, UniProt Q8NB16).
T3 sequence (Q8NB16 1-471): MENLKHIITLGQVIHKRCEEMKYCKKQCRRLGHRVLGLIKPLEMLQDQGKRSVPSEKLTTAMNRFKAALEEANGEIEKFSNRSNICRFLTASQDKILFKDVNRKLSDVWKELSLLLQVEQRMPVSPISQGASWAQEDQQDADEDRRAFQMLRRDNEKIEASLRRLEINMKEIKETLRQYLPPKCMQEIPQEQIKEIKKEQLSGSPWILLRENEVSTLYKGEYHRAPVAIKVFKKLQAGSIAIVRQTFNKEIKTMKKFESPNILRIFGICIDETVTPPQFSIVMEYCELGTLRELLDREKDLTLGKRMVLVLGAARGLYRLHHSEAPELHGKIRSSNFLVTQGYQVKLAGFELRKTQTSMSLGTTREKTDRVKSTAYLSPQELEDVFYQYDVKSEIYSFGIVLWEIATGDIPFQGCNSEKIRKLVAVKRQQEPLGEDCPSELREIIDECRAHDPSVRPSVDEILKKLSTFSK
Kind of test: KiNativ, OCI cells live cell. The note with it: 2 h, labeling site Lys1, peptide […]. Format: cell-based.

A further test deals with p70S6K (Homo sapiens, UniProt P23443). Kind of test: KiNativ, OCI cells live cell. The note with it: 2 h, labeling site Lys2, peptide […]. Format: cell-based.
Another test has as its system PCTAIRE2, PCTAIRE3. Kind of test: KiNativ, OCI cells live cell. It is filed as cell-based, human. Particulars: labeling site Lys1, peptide SKLTENLVALKEIR

PFTAIRE1, sequence (O94921 whole entry, the tested form may be a part): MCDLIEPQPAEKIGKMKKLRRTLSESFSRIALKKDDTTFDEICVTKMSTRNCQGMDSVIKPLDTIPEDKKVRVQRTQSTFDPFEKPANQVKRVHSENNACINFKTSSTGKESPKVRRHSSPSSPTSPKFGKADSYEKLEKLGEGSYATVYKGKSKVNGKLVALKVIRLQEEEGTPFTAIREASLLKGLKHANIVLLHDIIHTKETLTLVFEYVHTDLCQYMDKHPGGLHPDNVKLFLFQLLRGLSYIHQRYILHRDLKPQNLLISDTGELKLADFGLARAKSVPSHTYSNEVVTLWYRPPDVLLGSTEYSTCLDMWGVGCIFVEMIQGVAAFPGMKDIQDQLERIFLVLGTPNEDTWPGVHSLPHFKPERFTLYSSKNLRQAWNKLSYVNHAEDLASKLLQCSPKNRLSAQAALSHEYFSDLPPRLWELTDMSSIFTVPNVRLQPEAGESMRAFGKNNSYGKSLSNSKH
PFTAIRE1, sequence (Q8ND76 whole entry partner, the tested form may be a part): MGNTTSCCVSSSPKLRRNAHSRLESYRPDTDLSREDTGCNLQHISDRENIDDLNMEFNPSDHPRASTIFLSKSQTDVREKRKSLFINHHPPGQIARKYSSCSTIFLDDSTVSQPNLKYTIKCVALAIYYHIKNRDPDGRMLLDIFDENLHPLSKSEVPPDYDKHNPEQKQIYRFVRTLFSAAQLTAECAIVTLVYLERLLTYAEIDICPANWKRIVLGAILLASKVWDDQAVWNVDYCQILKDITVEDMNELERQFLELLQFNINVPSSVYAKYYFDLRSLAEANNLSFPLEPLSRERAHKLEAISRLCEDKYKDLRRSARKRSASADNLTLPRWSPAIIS
T2 sequence (O75676 whole entry, the tested form may be a part): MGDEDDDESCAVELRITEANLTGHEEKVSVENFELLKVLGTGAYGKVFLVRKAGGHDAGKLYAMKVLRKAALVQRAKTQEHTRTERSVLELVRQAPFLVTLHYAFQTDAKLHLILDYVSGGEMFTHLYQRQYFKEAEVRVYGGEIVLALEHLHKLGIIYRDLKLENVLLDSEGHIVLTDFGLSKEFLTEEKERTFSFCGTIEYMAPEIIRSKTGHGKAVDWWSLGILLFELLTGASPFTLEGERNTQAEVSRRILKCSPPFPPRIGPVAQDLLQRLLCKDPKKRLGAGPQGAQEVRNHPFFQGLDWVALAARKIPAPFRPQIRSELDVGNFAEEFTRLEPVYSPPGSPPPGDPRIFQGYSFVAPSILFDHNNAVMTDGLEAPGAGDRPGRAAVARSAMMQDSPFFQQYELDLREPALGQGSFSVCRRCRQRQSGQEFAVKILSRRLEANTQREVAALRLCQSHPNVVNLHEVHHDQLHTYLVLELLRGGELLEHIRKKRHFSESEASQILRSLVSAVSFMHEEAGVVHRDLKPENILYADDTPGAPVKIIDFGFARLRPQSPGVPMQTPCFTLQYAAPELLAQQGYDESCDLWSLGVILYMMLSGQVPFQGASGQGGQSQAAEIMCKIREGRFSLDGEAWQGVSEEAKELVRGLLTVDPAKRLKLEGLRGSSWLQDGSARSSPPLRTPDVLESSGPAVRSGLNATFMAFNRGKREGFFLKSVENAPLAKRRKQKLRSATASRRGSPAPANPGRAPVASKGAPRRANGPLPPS
CDK10, sequence (Q15131 whole entry): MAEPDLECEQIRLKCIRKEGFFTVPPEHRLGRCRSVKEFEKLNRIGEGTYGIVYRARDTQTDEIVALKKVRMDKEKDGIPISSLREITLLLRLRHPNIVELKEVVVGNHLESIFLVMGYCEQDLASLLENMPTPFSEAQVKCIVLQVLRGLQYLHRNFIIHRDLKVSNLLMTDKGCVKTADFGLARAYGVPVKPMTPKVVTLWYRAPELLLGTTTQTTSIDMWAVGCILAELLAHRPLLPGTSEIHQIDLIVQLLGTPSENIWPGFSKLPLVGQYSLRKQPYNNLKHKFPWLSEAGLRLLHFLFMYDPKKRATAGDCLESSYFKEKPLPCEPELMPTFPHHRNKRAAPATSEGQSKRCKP
FAM20B, sequence (O75063 whole entry): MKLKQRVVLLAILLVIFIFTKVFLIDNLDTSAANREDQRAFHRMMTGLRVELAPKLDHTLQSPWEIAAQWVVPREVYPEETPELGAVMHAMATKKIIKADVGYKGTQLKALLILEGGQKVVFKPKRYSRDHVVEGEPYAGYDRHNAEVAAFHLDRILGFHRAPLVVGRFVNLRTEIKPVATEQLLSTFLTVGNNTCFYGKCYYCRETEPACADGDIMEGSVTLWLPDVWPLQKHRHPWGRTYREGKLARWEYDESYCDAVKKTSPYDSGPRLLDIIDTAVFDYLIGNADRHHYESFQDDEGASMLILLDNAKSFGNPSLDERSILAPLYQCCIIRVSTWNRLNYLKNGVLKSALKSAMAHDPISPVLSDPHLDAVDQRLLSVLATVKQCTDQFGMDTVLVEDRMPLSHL
RIPK3, sequence (Q9Y572 whole entry): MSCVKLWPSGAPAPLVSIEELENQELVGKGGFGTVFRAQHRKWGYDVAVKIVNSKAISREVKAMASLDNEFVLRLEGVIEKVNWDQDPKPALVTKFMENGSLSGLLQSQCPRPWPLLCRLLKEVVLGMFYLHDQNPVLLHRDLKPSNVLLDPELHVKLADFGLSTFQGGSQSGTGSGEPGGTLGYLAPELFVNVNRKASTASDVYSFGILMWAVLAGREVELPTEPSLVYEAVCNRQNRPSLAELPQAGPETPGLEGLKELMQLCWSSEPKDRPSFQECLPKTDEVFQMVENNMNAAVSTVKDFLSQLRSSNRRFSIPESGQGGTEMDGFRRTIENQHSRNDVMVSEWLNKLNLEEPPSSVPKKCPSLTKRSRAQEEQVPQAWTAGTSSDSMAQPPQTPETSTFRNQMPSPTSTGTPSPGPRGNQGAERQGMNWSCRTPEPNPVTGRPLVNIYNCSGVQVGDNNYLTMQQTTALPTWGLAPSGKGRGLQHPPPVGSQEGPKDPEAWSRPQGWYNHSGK
p70S6K, sequence (P23443 whole entry): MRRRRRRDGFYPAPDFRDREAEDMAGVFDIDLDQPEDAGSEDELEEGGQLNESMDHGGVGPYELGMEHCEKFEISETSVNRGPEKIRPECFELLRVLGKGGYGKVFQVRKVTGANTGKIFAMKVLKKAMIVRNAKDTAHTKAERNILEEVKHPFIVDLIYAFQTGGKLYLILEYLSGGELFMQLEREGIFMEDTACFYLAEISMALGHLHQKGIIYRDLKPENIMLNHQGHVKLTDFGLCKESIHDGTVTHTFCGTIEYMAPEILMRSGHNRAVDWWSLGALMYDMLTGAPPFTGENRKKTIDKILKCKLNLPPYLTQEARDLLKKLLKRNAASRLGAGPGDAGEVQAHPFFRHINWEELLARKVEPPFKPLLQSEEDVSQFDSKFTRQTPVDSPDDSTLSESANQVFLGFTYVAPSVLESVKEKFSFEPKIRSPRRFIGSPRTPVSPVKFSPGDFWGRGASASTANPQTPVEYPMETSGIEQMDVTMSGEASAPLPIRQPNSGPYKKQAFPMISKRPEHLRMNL
GSK3A, sequence (P49840 whole entry): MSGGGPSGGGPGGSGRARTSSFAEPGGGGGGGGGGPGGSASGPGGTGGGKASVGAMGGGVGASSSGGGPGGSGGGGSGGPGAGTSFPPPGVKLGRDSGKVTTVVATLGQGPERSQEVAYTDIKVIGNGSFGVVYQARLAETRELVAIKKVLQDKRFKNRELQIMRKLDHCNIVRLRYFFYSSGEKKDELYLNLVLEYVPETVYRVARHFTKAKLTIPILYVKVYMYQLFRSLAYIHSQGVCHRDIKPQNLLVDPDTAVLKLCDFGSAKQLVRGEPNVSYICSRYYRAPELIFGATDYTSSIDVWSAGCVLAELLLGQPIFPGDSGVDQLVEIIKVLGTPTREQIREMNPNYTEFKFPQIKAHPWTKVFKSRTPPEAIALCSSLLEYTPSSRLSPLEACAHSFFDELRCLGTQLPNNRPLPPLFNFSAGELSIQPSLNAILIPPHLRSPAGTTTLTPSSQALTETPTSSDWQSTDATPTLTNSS
CaMKK2, sequence (Q96RR4 whole entry): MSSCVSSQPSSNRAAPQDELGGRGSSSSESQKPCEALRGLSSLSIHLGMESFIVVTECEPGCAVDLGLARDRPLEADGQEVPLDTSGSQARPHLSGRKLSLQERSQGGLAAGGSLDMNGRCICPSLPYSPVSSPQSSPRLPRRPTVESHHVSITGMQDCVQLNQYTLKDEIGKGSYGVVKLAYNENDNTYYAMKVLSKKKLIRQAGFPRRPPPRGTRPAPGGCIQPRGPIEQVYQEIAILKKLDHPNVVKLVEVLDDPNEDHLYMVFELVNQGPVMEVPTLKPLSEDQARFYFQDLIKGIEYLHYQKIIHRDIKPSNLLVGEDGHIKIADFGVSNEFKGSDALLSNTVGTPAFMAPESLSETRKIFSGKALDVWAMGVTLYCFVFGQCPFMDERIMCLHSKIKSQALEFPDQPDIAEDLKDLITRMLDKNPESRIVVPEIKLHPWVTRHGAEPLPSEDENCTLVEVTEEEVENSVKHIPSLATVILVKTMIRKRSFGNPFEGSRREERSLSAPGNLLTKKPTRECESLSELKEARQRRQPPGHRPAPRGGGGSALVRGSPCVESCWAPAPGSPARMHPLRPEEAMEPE
LCK, sequence (P06239 whole entry): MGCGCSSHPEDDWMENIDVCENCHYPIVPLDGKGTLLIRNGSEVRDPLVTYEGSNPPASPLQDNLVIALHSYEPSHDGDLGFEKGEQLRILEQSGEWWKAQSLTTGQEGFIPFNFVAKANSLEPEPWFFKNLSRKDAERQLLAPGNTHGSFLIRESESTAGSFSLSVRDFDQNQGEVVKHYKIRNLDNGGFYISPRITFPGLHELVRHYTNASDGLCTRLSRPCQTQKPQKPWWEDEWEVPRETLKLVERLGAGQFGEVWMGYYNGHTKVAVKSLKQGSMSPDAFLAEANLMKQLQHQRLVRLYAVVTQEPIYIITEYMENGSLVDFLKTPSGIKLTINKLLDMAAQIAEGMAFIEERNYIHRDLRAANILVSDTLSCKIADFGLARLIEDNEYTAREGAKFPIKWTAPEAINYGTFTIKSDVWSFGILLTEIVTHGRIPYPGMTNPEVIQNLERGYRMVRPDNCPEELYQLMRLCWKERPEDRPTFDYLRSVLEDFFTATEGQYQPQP

Regarding `CN1CCN(Cc2ccc(Nc3ncc(Cl)c(Nc4ccccc4S(=O)(=O)N(C)C)n3)cc2)CC1` [TP-0903], the inhibition at 0.1 µM at GSK3A was 22.6%; on FAM20B, 7.4%; against MAPKAPK3 it was -28.5%; against LCK it was -4.3%; at MAP2K3 (labeling site Activation Loop, peptide MCDFGISGYLVDSVAKTMDAGCKPYMAPER), 6.8%; against MAP2K3 (labeling site Lys1, peptide HAQSGTIMAVKR), 8%. For the same compound, the inhibition at 0.1 µM against MAP2K3 (labeling site Lys2, peptide DVKPSNVLINK) is 8.2%; on CDK10 it was 10%; against RIPK3, 2.8%; on PCTAIRE1, 94.6%; on CaMKK2, 63.2%; against MSK2 domain1 (labeling site Lys1, peptide LYAMKVLR), 21.8%. The inhibition at 0.1 µM at MSK2 domain1 (labeling site Lys2, peptide DLKLENVLLDSEGHIVLTDFGLSK) is 12.3%; against MLKL it was -29.6%; against p70S6K it was 6.3%. Further, the Inhibition is 91.0% in the test with AurA, AurB, AurC; -17.4% in the test on p38d, p38g; -3.1% in the test with KSR1, KSR2; 62.2% at PFTAIRE1 (labeling site Lys1, peptide LVALKVIR); 72.4% at PFTAIRE1 (labeling site Lys2, peptide DLKPQNLLISDTGELK); 89.6% with PCTAIRE2, PCTAIRE3. Also, in [1], the “Cell surface expression of CD11b” value is “increased”. In addition, in the test on OCI-AML3 cells, the CD11b expression entry is listed as “increase”. For the same compound, the Kd on FLT3 ITD is 5.6 nM.

Usually inhibition stands for the relative decrease from the control value, in per cent. Broadly, the Inhibition is the change of the read-out against control, counted positive when it falls. By Kd is commonly meant the equilibrium constant for the complex coming apart. Higher therefore signals lower affinity.
